Measurements taken from patent publication US6344505B1, “Mono- and bis-benzotriazolyldihydroxybiaryl UV absorbers” (Cytec Industries Inc., priority 1999, dated 2002).
“And” between values parts separate entries of the source, which are not always exact repeats. Identical values can stand only once. Like-named read-outs stand apart in the source and are kept apart here. Values belong to the molecule of their own block, whether it stands above or below them.

Tests used:
[1] = UV absorption in toluene (λmax, molar absorptivity); type: physicochemical
From the text: The high molar absorptivity of 3,3′-bis-(2H-benzotriazol-2-yl)-5,5′-di-tert-octyl-1,1′-biphenyl-2,2′-diol, ε310=25,600 (toluene) and ε353=28,300 (toluene) are indicative of high ultraviolet absorption efficiency of the benzotriazole stabilizers of the present invention.
The bis-benzotriazoles of the invention absorb UV light at longer wavelengths than their non-dimeric or alkylene bridged dimeric counterparts. For example, the dimeric 3,3′-bis-(2H-benzotriazol-2-yl)-5,5′-di-tert-octyl-1,1′-biphenyl-2,2′-diol of the present invention absorbs at λmax(toluene)=353 nm. In contrast, the monomeric 2-(2H-benzotriazol-2-yl)-4-tert-octyl-phenol absorbs at a much lower wavelength, at λmax(toluene)=346 nm. Furthermore, the methylene bridged 2,2′-methylenedi{6-(2-benzotriazolyl)-4-tert-octyl-phenol} has an absorption at λmax(toluene)=350 nm, also substantially shorter than that of the bis-benzotriazoles of the present invention.
PRODUCT A: 3,3′-bis-(2H-benzotriazol-2-yl)-5,5′-di-tert-octyl-1,1′-biphenyl-2,2′-diol (COMPOUND 1) (0.033 g), characterized by ^1H nuclear magnetic resonance spectroscopy (NMR), ultraviolet and mass spectroscopy; λmax(toluene): 310 and 353 nm; ε310=25,600; ε353=28,300; high resolution electron impact mass spectroscopy (HREI/MS): m/e=Found: 644.3815; Calculated: 644.3839; and
PRODUCT B: 3-(2H-Benzotriazol-2-yl)-5,5′-di-tert-octyl-1,1′-biphenyl-2,2′-diol (0.144 g), characterized by ^1H nuclear magnetic resonance spectroscopy (NMR), ultraviolet spectroscopy, and mass spectroscopy; λmax(toluene): 332 nm; ε332=15,400; high resolution electron impact mass spectroscopy (HREI/MS): m/e=Found: 527.3498; Calculated: 527.3512.

[2] = Thermal Gravimetric Analysis (TGA), temperature of 10 wt % loss (volatility); type: physicochemical; details: for TGAT=10% point: temperature at which 10 wt % loss occurs, TGA experiment; for TGA T-10%: Temperature at which 10% wt. loss is observed during TGA analysis
From the text: A reliable indication of the volatility of benzotriazole stabilizers is the temperatures at which 10 wt % loss occurs (TGAT=10%).

[3] = Solubility in xylene (compatibility); type: physicochemical
[4] = Florida weathering (5° south, direct, ASTM G7-89) of acrylic melamine coating; details: Table 11
Protocol: COMPOUND 1 was formulated in a clear acrylic melamine coatings which were applied to aluminum panels for accelerated weathering testing as follows. COMPOUND 1 (2% based on total resin solids) was pre-dissolved in xylenes, alone and in combination with Sanduvor® 3058 HALS (0.5% or 1.0% based on total resin solids), and added to the clear acrylic melamine formulation given in Table 6. A formulation containing Tinuvin® 328 (2% based on total resin solids) was also prepared for comparison purposes. Unpolished aluminum panels, measuring 4″×12″, obtained from ACT Laboratories, Inc. (Hillsdale, Mich.) were coated with the clear coat formulation of Table 6. The draw-down technique, using WC-52 Wire-Cators™ (Leneta co., Ho-Ho-Kus, N.J.), was used to apply the clear coats to the panels. Coatings 2 mil thick were obtained. The clear coats were allowed to flash for 10 min. at ambient temperature and cured for 30 min. at 135° C.
The coatings of Example 13 were weathered in Miami, Fla. The testing was performed in accordance with ASTM G7-89 at a tilt angle of […] from the horizontal facing south with specimens mounted unbacked.

Structure (SMILES): CC(C)(c1ccccc1)c1cc(-c2cc(C(C)(C)c3ccccc3)cc(-n3nc4ccccc4n3)c2O)c(O)c(-n2nc3ccccc3n2)c1 [COMPOUND 3, 3,3′-bis-(2H-benzotriazol-2-yl)-5,5′-di-cumyl-1,1′-biphenyl-2,2′-diol]
TGA T-10% [2]: 377 °C

Structure (SMILES): CC(C)(C)CC(C)(C)c1ccc(O)c(-c2cc(C(C)(C)CC(C)(C)C)cc(-n3nc4ccccc4n3)c2O)c1 [PRODUCT B, 3-(2H-Benzotriazol-2-yl)-5,5′-di-tert-octyl-1,1′-biphenyl-2,2′-diol]
λmax(toluene) [1]: 332 nm
molar absorptivity ε332 ([1]; 332 nm): 15,400

Structure (SMILES): CC(C)(c1ccccc1)c1cc(-n2nc3ccccc3n2)c(O)c(C(C)(C)c2ccccc2)c1 [Tinuvin ®-234, 2-(2H-Benzotriazol-2yl)-4,6-bis (α,α-dimethylbenzyl) phenol]
TGA T-10% [2]: 312 °C

Structure (SMILES): Cc1ccc(O)c(-n2nc3ccccc3n2)c1 [Tinuvin P ™, 2-(2H-benzotriazol-2-yl)-4-methyl-phenol]
TGA T-10% [2]: 205 °C

Structure (SMILES): CCC(C)(C)c1cc(-n2nc3ccccc3n2)c(O)c(C(C)(C)CC)c1 [Tinuvin ® 328, reference compound]
efficiency in reducing total color change (delta E) relative to the unstabilized coating [4]: comparable efficiency

The next lines start with the values.

melting point: 234 °C
Structure (SMILES): CC(C)(C)c1cc(-c2cc(C(C)(C)C)cc(-n3nc4ccccc4n3)c2O)c(O)c(-n2nc3ccccc3n2)c1 [COMPOUND 2, 3,3′-bis-(2H-benzotriazol-2-yl)-5,5′-di-tert-butyl-1,1′-biphenyl-2,2′-diol]

λmax(toluene) [1]: 350 nm
TGAT=10% point [2]: 370 °C
solubility in xylene [3]: 2.5 gram/100 ml
Structure (SMILES): CC(C)(C)CC(C)(C)c1cc(Cc2cc(C(C)(C)CC(C)(C)C)cc(-n3nc4ccccc4n3)c2O)c(O)c(-n2nc3ccccc3n2)c1 [MIXXIM BB/100®, 2,2′-methylenedi{6-(2-benzotriazolyl)-4-tert-octyl-phenol}, reference compound]

TGA T-10% [2]: 383 °C
Structure (SMILES): Oc1c(-c2cccc(-n3nc4ccccc4n3)c2O)cccc1-n1nc2ccccc2n1 [COMPOUND 5, 3,3′-bis-(2H-benzotriazol-2-yl)-1,1′-biphenyl-2,2′-diol]

λmax(toluene) [1]: 310 nm and 353 nm
molar absorptivity ε310 ([1]; 310 nm, in M-1 cm-1 (unit assumed)): 25,600
molar absorptivity ε353 ([1]; 353 nm, in M-1 cm-1 (unit assumed)): 28,300
λmax(toluene) ([1]; listed as 3,3′-bis-(2H-benzotriazol-2-yl)-5,5′-di-tert-octyl-1,1′-biphenyl-2,2′-diol): 353 nm
efficiency in reducing total color change (delta E) relative to the unstabilized coating [4]: comparable efficiency
TGA T-10% [2]: 381 °C
TGAT=10% point [2]: 384 °C
solubility in xylene [3]: 6.0 gram/100 ml
melting point: 209 to 211 °C
Structure (SMILES): CC(C)(C)CC(C)(C)c1cc(-c2cc(C(C)(C)CC(C)(C)C)cc(-n3nc4ccccc4n3)c2O)c(O)c(-n2nc3ccccc3n2)c1 [COMPOUND 1, 3,3′-bis-(2H-benzotriazol-2-yl)-5,5′-di-tert-octyl-1,1′-biphenyl-2,2′-diol]

λmax(toluene) [1]: 346 nm
TGA T-10% [2]: 245 °C
TGAT=10% point [2]: 247 °C
Structure (SMILES): CC(C)(C)CC(C)(C)c1ccc(O)c(-n2nc3ccccc3n2)c1 [UV-5411, 2-(2H-benzotriazol-2-yl)-4-tert-octyl-phenol]

TGA T-10% [2]: 380 °C
Structure (SMILES): CC(C)(C)CC(C)(C)c1cc(Cc2cc(C(C)(C)CC(C)(C)C)cc(-n3nc4ccccc4n3)c2O)c(O)c(-n2nc3ccccc3n2)c1 [LA-31 ®, 2,2′-Methylenedi [Bis-2-benzotriazolyl)-4-tert-octylphenol]
